In ChEMBL document CHEMBL1152426, “Synthetic strategies toward carbocyclic purine-pyrimidine hybrid nucleosides” (Bioorg Med Chem, 2009) one finds Activity and Ki data, which are given here for 2 compounds.

pKi: −log10 of the molar value. The source made the active and inactive calls. The rule behind the calls is not given here.

Assay [1] can be described thus: Inhibition of S-adenosylhomocystein hydrolase in presence of 10 uM of S-adenosylhomocystein.
Assay [2] is described as follows: Inhibition of S-adenosylhomocystein hydrolase at 45 uM in presence of S-adenosylhomocystein.
A short description of assay [3]: Inhibition of S-adenosylhomocystein hydrolase.
Assay [4] is described as follows: Inhibition of DNA methyltransferase.

Turning to `O=c1[nH]c(=O)n([C@@H]2CC[C@@H](O)[C@H]2O)c2nc[nH]c12`, the outcome in assay [1] and in assay [2] was Active. In assay [3], this compound had a pKi of 5.30. Besides, in assay [4], the outcome was inactive.

Take `O=c1[nH]c(=O)n([C@@H]2CC[C@@H](O)[C@H]2O)c2ncsc12`: the result in assay [3] and in assay [4] was inactive.

For orientation: pKi means −log10 of the Ki, conventionally taken in molar units.
